Reference: PMC6158767, “Vistusertib (dual m-TORC1/2 inhibitor) in combination with paclitaxel in patients with high-grade serous ovarian and squamous non-small-cell lung cancer” (Annals of Oncology, 2018)
Where two headings read alike, the source gives them in different places. Each block holds one compound with its values, some of them ahead of it.

Assays:
[1] = in vivo
Description: (§3) This method is applicable to the analysis of AZD2014 in human plasma treated with K2EDTA anticoagulant. AZD2014 and the internal standard (ISTD), 13C22H2AZ12729279 are extracted from human plasma by solid-phase extraction (SPE). After evaporation under nitrogen, the residue is reconstituted and analysed using liquid chromatography (LC) with tandem mass spectrometric detection (MS/MS). The standard curve range is from 20.0 to 20,000 ng/mL for AZD2014, using a plasma sample volume of 0.0250 mL.

clinical = settings: human, in vivo, geometric mean; for AUC(0-t): AUClast of vistusertib; for Cmax: Cmax of vistusertib; for half-life: HL Lambda_z (half-life) of vistusertib
Description: as §3

patients with sqNSCLC = test: Toxicity (NCI-CTCAE V4.0) in the squamous non-small cell lung cancer expansion cohort
Description: Patients administered with 80 mg/m^2 paclitaxel with 50 mg vistusertib bd 3/7 days for 6/7 weeks, dosing starting concurrently on day 1 of each week
Patients administered with 80 mg/m^2 paclitaxel with 25 mg vistusertib bd 3/7 days for 6/7 weeks, dosing starting concurrently on day 1 of each week treated at paclitaxel 80 mg/m^2/week and vistusertib 25 mg bd 3/7.

[2] = tested on: Ser^473 p-AKT in platelet-rich plasma; test: Phosphorylation of AKT (Ser473) in platelet-rich plasma, MSD electrochemiluminescent immunoassay; assay type: in vivo, human
Description: Figure 1. Pharmacodynamic profile of vistusertib at 50 mg bd 3/7. Phosphorylation of AKT (Ser473) in platelet-rich plasma was quantified using MSD electrochemiluminescent immunoassays and normalised to corresponding total AKT values. Baseline values were established prior to the start of treatment. On C1D1, only paclitaxel (80 mg/m^2) was administered and a non-significant rise in p-ATK at 4 h following treatment was noted. […] On C1D8, the combination of paclitaxel and vistusertib was administered, which caused a significant reduction of p-AKT compared with baseline. Points represent individual patients, orange line represents mean of up to N = 6 patients. Four samples were excluded because of haemolysis, which interfered with the assay (*P<0.05; paired t-test).
pAkt was assessed in platelet rich plasma (PRP) using a sandwich immunoassay as per manufacturer’s instructions (K11100D, Meso Scale Discovery, Maryland, USA) which consisted of a multiplex assay with plates pre-coated with phospho(Ser473) Akt and total Akt capture antibodies. These plates were blocked for 1 hour, incubated with sample for 1 hour, and finally incubated with an anti-total Akt detection antibody conjugated to MSD-SULFO-TAG for 1 hour before being detected on a Meso Scale Discovery Sector Imager 6000 using electrochemiluminescence in order to determine the percentage of Akt phosphorylated. During validation the inter-assay precision ranged from 6.75 to 7.17%.

[3] = tested on: patients with advanced solid tumours; test: Toxicity (NCI-CTCAE V4.0), DLT and MTD in the dose-escalation cohort, vistusertib with weekly paclitaxel 80 mg/m^2
Description: The dose of paclitaxel administered was 80 mg/m^2 once weekly for 6/7 weeks in a 7-week cycle. In the first week of the dose-escalation cohorts, patients received only paclitaxel on C1D1, then vistusertib on C1D3 to allow for PK and PD samplings. Patients then received weekly paclitaxel (on days 8, 15, 22, 29, and 36) with vistusertib, also starting on days 8, 15, 22, 29, and 36, given orally twice daily either for three consecutive days per week (schedule A: 3/7 days, 6/7 weeks) or two consecutive days per week (schedule B: 2/7 days, 6/7 weeks). In the dose expansion, schedule A was taken forward with patients dosing with vistusertib weekly on days 1–3 for 6 weeks of a 7-week cycle.

sqNSCLC = test: RECIST response in the dose-escalation cohort; assay type: in vivo, human; settings: vistusertib + weekly paclitaxel
Description: (§1) RECIST v1.1 was used to assess tumour response supported by GCIG CA125 response in patients with HGSOC. Response was assessed at the end of every 7-week cycle.

[4] = tested on: squamous non-small-cell lung cancer (sqNSCLC); test: Squamous lung cancer expansion: RECIST v1.1 response and progression-free survival; assay type: in vivo, human
Description: as §1
(§2) Progression-free survival was estimated by the Kaplan–Meier method, beginning on the day of the first dose (C1D1) and continuing until disease progression. Patients who came off study for reasons other than disease progression (clinical or RECIST) were censored. This study is registered with ClinicalTrials.gov, identifier: NCT02193633.

patients = test: Toxicity (NCI-CTCAE V4.0), whole study: hyperglycaemia incidence; settings: vistusertib + weekly paclitaxel
ovarian cancer models = tested on: ovarian cancer models; set-up: method as in PMID 29371953; settings: in vitro and in vivo; cited from earlier work
[5] = set-up: method as in PMID 23375793, PMID 25805799; settings: cited from earlier work
[6] = tested on: high-grade serous ovarian cancer (HGSOC); test: Ovarian cancer expansion: RECIST v1.1 / GCIG CA125 response and progression-free survival; assay type: in vivo, human
Description: as §1, §2
Twenty-seven patients with relapsed/refractory HGSOC were treated at the RP2D. Two patients were replaced as per protocol and were not considered for assessment of response. The median number of previous treatments was three: the majority (26/27; 96%) of patients having received paclitaxel and 3/27 patients (11%) having previously received weekly paclitaxel (supplementary Table S2, available at Annals of Oncology online). The RECIST and CA125 response rates were 13/25 (52%) and 16/25 (64%), respectively (Figure 2A). The mPFS was 5·8 months (95% CI: 3.3–18.5).

[7] = Pharmacokinetic sampling (plasma, LC-MS/MS) in the dose-escalation arm; settings: paclitaxel with vistusertib
Description: as §3

[8] = Lung Expansion 25 mg + paclitaxel (N=24), all grades
[9] = Lung Expansion 50 mg + paclitaxel (N=17), all grades
[10] = sqNSCLC expansion, 25 mg cohort
[11] = sqNSCLC expansion, 25 mg vistusertib bd 3/7 days + paclitaxel 80 mg/m^2
[12] = HGSOC expansion, 50 mg vistusertib bd 3/7 days + paclitaxel 80 mg/m^2
[13] = HGSOC expansion, 50 mg vistusertib bd 3/7 days + paclitaxel 80 mg/m^2, 25 patients

Structure (SMILES): CNC(=O)c1cccc(-c2ccc3c(N4CCOC[C@@H]4C)nc(N4CCOC[C@@H]4C)nc3n2)c1 [vistusertib]
- AUC versus dose of vistusertib [1]: approximately dose proportional
- Drug-drug PK interaction on drug exposure, combination versus either agent alone [1]: no drug-drug PK interaction
- AUC(0-t) (clinical; 25 mg): 2090 ng·h/mL
- Cmax (clinical; 25 mg): 579 ng/mL
- half-life (clinical; 25 mg): 3.3 h
- AUC(0-t) (clinical; 50 mg): 2600 ng·h/mL
- Cmax (clinical; 50 mg): 840 ng/mL
- half-life (clinical; 50 mg): 1.8 h
- AUC(0-t) (clinical; 75 mg): 7540 ng·h/mL
- Cmax (clinical; 75 mg): 1840 ng/mL
- half-life (clinical; 75 mg): 2.7 h
- AUC(0-t) (clinical; 100 mg): 7560 ng·h/mL
- Cmax (clinical; 100 mg): 1960 ng/mL
- half-life (clinical; 100 mg): 3 h
- Abdominal cramps/pain, % of patients (patients with sqNSCLC; [8]): 8%
- Alopecia, % of patients (patients with sqNSCLC; [8]): 54%
- Haemoptysis, % of patients (patients with sqNSCLC; [8]): 4%
- Aches and pain, % of patients (patients with sqNSCLC; [9]): 12%
- Alopecia, % of patients (patients with sqNSCLC; [9]): 12%
- Tolerated dose of vistusertib in sqNSCLC (patients with sqNSCLC; human, in vivo): 25 mg
- Ser^473 p-AKT lower than corresponding time-point following paclitaxel alone ([2]; 4 h, vistusertib 50 mg bd 3/7 + paclitaxel): 62%
- Ser^473 p-AKT in PRP, % of pre-dose levels ([2]; 4 h post-vistusertib, 50 mg bd 3/7 in addition to paclitaxel (C1D8), P = 0.0495): 53%
- Change of p-AKT in PRP after single dose of vistusertib alone ([2]; C1D4, 50 mg): non-significant reduction
- Recommended phase II dose (RP2D) of vistusertib ([3]; bd 3/7 days for 6/7 weeks, with 80 mg/m^2 weekly paclitaxel): 50 mg
- Dose-limiting toxicities ([3]; in vivo): rash
- Dose-limiting toxicities ([3]; schedule A (bd 3/7 days) with weekly paclitaxel 80 mg/m^2): fatigue and mucositis
- Maximally tolerated dose (MTD) of vistusertib ([3]; schedule A, bd 3/7 days for 6/7 weeks, with 80 mg/m^2 weekly paclitaxel): 50 mg
- Maximally tolerated dose (MTD) of vistusertib ([3]; schedule B, bd 2/7 days for 6/7 weeks, with 80 mg/m^2 weekly paclitaxel): 75 mg
- Partial responses in patients with sqNSCLC (sqNSCLC): two partial responses
- RECIST response, N with PR ([4]; LUNG Expansion (25 mg AZD2014/80 mg Paclitaxel), 24 patients): 8
- Patients with reduction in the size of their tumour [4, 10]: 78%
- Patients with reduction in the size of their tumour, number [4, 10]: Eighteen of the 23
- Median progression-free survival (mPFS) [4, 11]: 5.8 months
- RECIST responses (partial response), patients [4, 11]: 8/23
- RECIST response rate ([4]; sqNSCLC expansion, 25 mg vistusertib bd 3/7 days + paclitaxel 80 mg/m^2, 23 patients): 35%
- Hyperglycaemia, all grades, % of patients (patients): 11%
- Hyperglycaemia, grade 3/4, % of patients (patients): 1%
- Effect of the combination of vistusertib and paclitaxel on growth (ovarian cancer models): additive effect
- half-life [5]: short half-life
- Patients with reduction in size of their tumour ([6]; HGSOC expansion at RP2D): 76%
- Patients with reduction in size of their tumour, number ([6]; HGSOC expansion at RP2D): 19 of 25
- GCIG CA125 responses, patients [6, 12]: 16/25
- Median progression-free survival (mPFS) [6, 12]: 5.8 months
- RECIST responses (partial response), patients [6, 12]: 13/25
- GCIG CA125 response rate [6, 13]: 64%
- RECIST response rate [6, 13]: 52%
- RECIST response, N with PR ([6]; OVARIAN Expansion (50 mg AZD2014/80 mg Paclitaxel), 27 patients): 13 PR

- Drug-drug PK interaction on drug exposure, combination versus either agent alone [7]: no drug-drug PK interaction
Structure (SMILES): CC(=O)O[C@H]1C(=O)[C@@]2(C)[C@H]([C@H](OC(=O)c3ccccc3)[C@]3(O)C[C@H](OC(=O)[C@H](O)[C@@H](NC(=O)c4ccccc4)c4ccccc4)C(C)=C1C3(C)C)[C@]1(OC(C)=O)CO[C@@H]1C[C@@H]2O [paclitaxel]
- Increase in Ser^473 p-AKT levels in PRP ([2]; 4 h following 80 mg/m^2 paclitaxel alone (C1D1), P = 0.14, statistically non-significant): 1.4 fold
